Assay results taken from PubChem BioAssay AID248 (DTP/NCI, 2004).
Several values for one entry are separate records, joined by “and”; a condition that tells them apart may be missing. Equal entries are not always repeated. Toxic doses and inconclusive results are not listed. No stated cut-off is given here; in the data, active means T/C of 150% or more; inactive means T/C below 125%.

System: L1210 leukemia ip in BDF1 mice, survival T/C
Experiment: NCI In Vivo Anticancer Drug Screen. Data for tumor model L1210 Leukemia (intraperitoneal) in B6D2F1 (BDF1) mice
Conditions: endpoint: mean survival time, higher = longer survival
Procedure, shortened: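 In this screen, tumor-bearing mice given compound are compared to those given vehicle, and their survival values are reported as a treated-to-control quotient.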

[1] = dose: 50.0 mg/kg/injection, schedule: Q01DX009 (ip), vehicle: saline
[2] = dose: 100.0 mg/kg/injection, schedule: Q01DX009 (ip), vehicle: saline
[3] = dose: 200.0 mg/kg/injection, schedule: Q01DX009 (ip), vehicle: saline
[4] = dose: 50.0 mg/kg/injection, schedule: Q01DX009 (ip), vehicle: saline with Tween-80
[5] = dose: 100.0 mg/kg/injection, schedule: Q01DX009 (ip), vehicle: saline with Tween-80
[6] = dose: 200.0 mg/kg/injection, schedule: Q01DX009 (ip), vehicle: saline with Tween-80
[7] = dose: 100.0 mg/kg/injection, schedule: Q01DX009 (ip), vehicle: Klucel (hydroxypropylcellulose) (HPC)
[8] = dose: 200.0 mg/kg/injection, schedule: Q01DX009 (ip), vehicle: Klucel (hydroxypropylcellulose) (HPC)
[9] = dose: 400.0 mg/kg/injection, schedule: Q01DX009 (ip), vehicle: Klucel (hydroxypropylcellulose) (HPC)
[10] = dose: 100.0 mg/kg/injection, schedule: Q01DX001 (ip), vehicle: Klucel (hydroxypropylcellulose) (HPC)
[11] = dose: 100.0 mg/kg/injection, schedule: Q04DX003 (ip), vehicle: Klucel (hydroxypropylcellulose) (HPC)
[12] = dose: 200.0 mg/kg/injection, schedule: Q01DX001 (ip), vehicle: Klucel (hydroxypropylcellulose) (HPC)
[13] = dose: 200.0 mg/kg/injection, schedule: Q04DX003 (ip), vehicle: Klucel (hydroxypropylcellulose) (HPC)
[14] = dose: 400.0 mg/kg/injection, schedule: Q01DX001 (ip), vehicle: Klucel (hydroxypropylcellulose) (HPC)
[15] = dose: 400.0 mg/kg/injection, schedule: Q04DX003 (ip), vehicle: Klucel (hydroxypropylcellulose) (HPC)
[16] = dose: 50.0 mg/kg/injection, schedule: Q01DX009 (ip), vehicle: Klucel (hydroxypropylcellulose) (HPC)
[17] = dose: 100.0 mg/kg/injection, schedule: Q04DX003 (ip), vehicle: saline with Tween-80
[18] = dose: 200.0 mg/kg/injection, schedule: Q04DX003 (ip), vehicle: saline with Tween-80
[19] = dose: 400.0 mg/kg/injection, schedule: Q04DX003 (ip), vehicle: saline with Tween-80

Measured: T/C

Nc1nc(-c2ccccc2)[nH]c(=O)c1N=O
inactive: dose: 100.0 mg/kg/injection, schedule: Q04DX002 (ip), vehicle: saline with Tween-80 98 % of control | dose: 200.0 mg/kg/injection, schedule: Q04DX002 (ip), vehicle: saline with Tween-80 87 % of control | dose: 400.0 mg/kg/injection, schedule: Q04DX002 (ip), vehicle: saline with Tween-80 102 % of control

O=C(O)C12CCC(CC1)C2
inactive: [1] 106 % of control | [2] 110 % of control | [3] 112 % of control | dose: 400.0 mg/kg/injection, schedule: Q01DX009 (ip), vehicle: saline 96 % of control

CNc1n[nH]c(=S)s1
inactive: dose: 100.0 mg/kg/injection, schedule: Q04DX002 (ip), vehicle: Klucel (hydroxypropylcellulose) (HPC) 101 % of control | dose: 200.0 mg/kg/injection, schedule: Q04DX002 (ip), vehicle: Klucel (hydroxypropylcellulose) (HPC) 104 % of control | dose: 400.0 mg/kg/injection, schedule: Q04DX002 (ip), vehicle: Klucel (hydroxypropylcellulose) (HPC) 104 % of control

C/C(=N\N=C(/C)c1ccc(O)cc1)c1ccc(O)cc1
inactive: [4] 96 % of control | [5] 92 % of control | [6] 89 % of control

CC(=O)OC1CC(OC2C(O)CC(OC3C(O)CC(OC4CCC5(C)C(CCC6C5CC(O)C5(C)C(C7=CC(=O)OC7)CCC65O)C4)OC3C)OC2C)OC(C)C1OC1OC(CO)C(O)C(O)C1O (stereo not given)
inactive: dose: 50.0 mg/kg/injection, schedule: Q01DX001 (sc), vehicle: steriod suspending solution 100 % of control | dose: 75.0 mg/kg/injection, schedule: Q01DX001 (ip), vehicle: other 95 % of control | dose: 100.0 mg/kg/injection, schedule: Q01DX001 (sc), vehicle: steriod suspending solution 109 % of control | dose: 150.0 mg/kg/injection, schedule: Q01DX001 (ip), vehicle: other 97 % of control | dose: 200.0 mg/kg/injection, schedule: Q01DX001 (sc), vehicle: steriod suspending solution 103 % of control | dose: 300.0 mg/kg/injection, schedule: Q01DX001 (ip), vehicle: other 93 % of control | dose: 400.0 mg/kg/injection, schedule: Q01DX001 (sc), vehicle: steriod suspending solution 105 % of control

CCCCCCCCCCc1cc2c([nH]1)C(=O)c1ccccc1C2=O
inactive: dose: 37.5 mg/kg/injection, schedule: Q01DX001 (ip), vehicle: Klucel (hydroxypropylcellulose) (HPC) 86 % of control | dose: 75.0 mg/kg/injection, schedule: Q01DX001 (ip), vehicle: Klucel (hydroxypropylcellulose) (HPC) 89 % of control

C=C1C(=O)OC2CCCC/C=C\C12 (stereo not given)
inactive: [1] 95 % of control | [2] 98 % of control | [3] 95 % of control

O=C(NCCCCCCNC(=O)Nc1cccc(C(F)(F)F)c1)Nc1cccc(C(F)(F)F)c1
inactive: [7] 97 % of control | [8] 92 % of control | [9] 92 % of control

Cc1cc(C)c(S(=O)(=O)C(=O)C(=O)NN)c(C)c1
inactive: [10] 104 % of control | [11] 115 % of control | [12] 106 % of control | [13] 109 % of control | [14] 106 % of control | [15] 104 % of control

O=c1[nH]c2cscc2c(=O)n1O
inactive: [11] 103 % of control | [13] 97 % of control | [15] 107 % of control

COc1ccc(OC)c(C2C(C#N)C(C=O)NC(C=O)C2C#N)c1 (stereo not given)
inactive: dose: 100.0 mg/kg/injection, schedule: Q04DX003 (ip), vehicle: other 107 % of control | dose: 200.0 mg/kg/injection, schedule: Q04DX003 (ip), vehicle: other 109 % of control | dose: 400.0 mg/kg/injection, schedule: Q04DX003 (ip), vehicle: other 107 % of control

CCOC(=O)CCCN(c1sc(C)c(C)c1C(=O)OCC)S(=O)(=O)c1ccc(C)cc1
inactive: [16] 86 % of control | dose: 50.0 mg/kg/injection, schedule: Q04DX003 (ip), vehicle: saline with Tween-80 97 % of control | [7] 105 % of control | [17] 97 % of control | [8] 86 % of control | [18] 97 % of control | [9] 90 % of control | [19] 101 % of control

Clc1ccc(-c2cc(=[N+]3CC[N+](=c4cc(-c5ccc(Cl)cc5)ss4)CC3)ss2)cc1
inactive: dose: 50.0 mg/kg/injection, schedule: Q01DX009 (ip), vehicle: water 102 % of control | dose: 100.0 mg/kg/injection, schedule: Q01DX009 (ip), vehicle: water 89 % of control | dose: 100.0 mg/kg/injection, schedule: Q04DX003 (ip), vehicle: water 106 % of control | dose: 200.0 mg/kg/injection, schedule: Q01DX009 (ip), vehicle: water 105 % of control | dose: 200.0 mg/kg/injection, schedule: Q04DX003 (ip), vehicle: water 104 % of control | dose: 400.0 mg/kg/injection, schedule: Q04DX003 (ip), vehicle: water 107 % of control

CCCCCCCCCC(=O)N/N=C/c1ccco1
inactive: [7] 87 % of control | [8] 99 % of control

C[N+](C)(C)c1ccccn1
inactive: dose: 75.0 mg/kg/injection, schedule: Q01DX001 (ip), vehicle: saline 102 % of control

C=C=CC1CCCC1C (stereo not given)
inactive: [4] 110 % of control | [5] 106 % of control | [6] 92 % of control

CC(C)(C)C1(C)CN(N=O)C(=O)O1 (stereo not given)
inactive: dose: 12.5 mg/kg/injection, schedule: Q04DX003 (ip), vehicle: Klucel (hydroxypropylcellulose) (HPC) 114 % of control | dose: 25.0 mg/kg/injection, schedule: Q04DX003 (ip), vehicle: Klucel (hydroxypropylcellulose) (HPC) 104 % of control

COc1cc(OC)c(Oc2cc(OC)c(OC)c(OC)c2)c(OC)c1
inactive: [17] 97 % of control | [18] 103 % of control | [19] 101 % of control

O=[N+]([O-])c1cccc(C=Nc2ccccc2Cl)c1
inactive: [10] 101 % of control and 103 % of control | [12] 101 % of control | [14] 101 % of control and 103 % of control

NO
inactive: dose: 62.5 mg/kg/injection, schedule: Q01DX Z (oral), vehicle: saline 102 % of control | dose: 125.0 mg/kg/injection, schedule: Q01DX Z (oral), vehicle: saline 104 % of control | dose: 250.0 mg/kg/injection, schedule: Q01DX Z (oral), vehicle: saline 114 % of control

O=C1C(=C(C(F)(F)F)C(F)(F)F)C2CCC1C2 (stereo not given)
inactive: dose: 6.25 mg/kg/injection, schedule: Q01DX009 (ip), vehicle: saline with Tween-80 93 % of control | dose: 6.25 mg/kg/injection, schedule: Q04DX003 (ip), vehicle: saline with Tween-80 114 % of control | dose: 12.5 mg/kg/injection, schedule: Q01DX009 (ip), vehicle: saline with Tween-80 93 % of control | dose: 12.5 mg/kg/injection, schedule: Q04DX003 (ip), vehicle: saline with Tween-80 92 % of control | dose: 25.0 mg/kg/injection, schedule: Q04DX003 (ip), vehicle: saline with Tween-80 96 % of control

O=C(Nc1ccc([N+](=O)[O-])cc1)OCC#CC#CCOC(=O)Nc1ccc([N+](=O)[O-])cc1
inactive: [16] 104 % of control | [7] 100 % of control | [8] 86 % of control

CCCCCCCC/C=C\CCCCCCCC(=O)NCCOC
inactive: dose: 37.5 mg/kg/injection, schedule: Q01DX009 (ip), vehicle: saline 97 % of control | dose: 75.0 mg/kg/injection, schedule: Q01DX009 (ip), vehicle: saline 92 % of control | dose: 75.0 mg/kg/injection, schedule: Q04DX003 (ip), vehicle: saline 90 % of control | dose: 150.0 mg/kg/injection, schedule: Q01DX009 (ip), vehicle: saline 99 % of control | dose: 150.0 mg/kg/injection, schedule: Q04DX003 (ip), vehicle: saline 98 % of control | dose: 300.0 mg/kg/injection, schedule: Q04DX003 (ip), vehicle: saline 88 % of control

O=C(c1ccccc1)N(Nc1ccccc1)c1ccccc1
inactive: [16] 94 % of control | [7] 97 % of control | [11] 98 % of control | [8] 97 % of control | [13] 93 % of control | [9] 89 % of control | [15] 98 % of control

N#CCCC1=C(O)CCCC1=O
inactive: [4] 93 % of control | [5] 93 % of control | [6] 97 % of control
